The NIST ThermoML archive (doi:10.1021/je020196d)
± gives the expanded uncertainty stated by the source.

Legend:
[1] = refractive index (Na D-line) (dimensionless); details: 293.15 K; 101.33 kPa; Liquid; Standard Abbe refractometry
[2] = 293.15 K; 101.33 kPa; Liquid
[3] = activity coefficient (dimensionless); of the first substance listed, at infinite dilution; xn = mol fraction of the nth substance listed; details: Liquid, x1 = 0

SMILES	refractive index [1]	mass density [2]	activity coefficient ([3]; 323.15 K, Chromatography)	activity coefficient ([3]; 333.15 K, Chromatography)	activity coefficient ([3]; 343.15 K, Chromatography)	activity coefficient ([3]; 353.15 K, Chromatography)	activity coefficient ([3]; 363.15 K, Chromatography)	activity coefficient ([3]; 373.1 K, Chromatography)	activity coefficient ([3]; 383.15 K, Chromatography)	activity coefficient ([3]; 393.15 K, Chromatography)	further results
c1ccccc1 [benzene]	1.5015 ± 0.0007	878.3 ± 5 kg/m3									
c1ccccc1 [benzene] + OCCOCCOCCO			4.62 ± 0.21	4.38 ± 0.2	4.26 ± 0.19	4.1 ± 0.19	3.97 ± 0.18	3.92 ± 0.18	3.82 ± 0.17	3.75 ± 0.17	
c1ccccc1 [benzene] + OCCOCCOCCOCCO				2.99 ± 0.14		2.73 ± 0.12	2.65 ± 0.12	2.5 ± 0.11	2.41 ± 0.11	2.37 ± 0.11	activity coefficient ([3]; 403.15 K, Chromatography): 2.27 ± 0.1
CCCCCCCCCC [decane]	1.4113 ± 0.0007	730.2 ± 5 kg/m3									
CCCCCCCCCC [decane] + OCCOCCOCCO			252 ± 12	219 ± 10	196 ± 9.3	162 ± 7.6	141 ± 6.6	125 ± 5.9	107 ± 5	95.6 ± 4.5	
CCCCCCCCCC [decane] + OCCOCCOCCOCCO				123 ± 5.8		87.8 ± 4.1	75.1 ± 3.5	64.4 ± 3	55.2 ± 2.6	51.3 ± 2.4	activity coefficient ([3]; 403.15 K, Chromatography): 42.9 ± 2
CCc1ccccc1 [ethylbenzene]	1.4955 ± 0.0007	867.4 ± 5 kg/m3									
CCc1ccccc1 [ethylbenzene] + OCCOCCOCCO			10.9 ± 0.5	10.3 ± 0.47	9.73 ± 0.45	9.1 ± 0.42	8.72 ± 0.4	8.39 ± 0.38	7.94 ± 0.36	7.72 ± 0.35	
CCc1ccccc1 [ethylbenzene] + OCCOCCOCCOCCO				6.39 ± 0.29		5.63 ± 0.26	5.31 ± 0.24	5 ± 0.23	4.73 ± 0.22	4.58 ± 0.21	activity coefficient ([3]; 403.15 K, Chromatography): 4.35 ± 0.2
CCCCCCC [heptane]	1.3878 ± 0.0007	683.5 ± 5 kg/m3									
CCCCCCC [heptane] + OCCOCCOCCO			93.3 ± 4.4	82.7 ± 3.9	71.9 ± 3.4	62.7 ± 2.9	55.3 ± 2.6	50.2 ± 2.3	44.3 ± 2.1	40.6 ± 1.9	
CCCCCCC [heptane] + OCCOCCOCCOCCO				50.2 ± 2.3		37.6 ± 1.7	32.1 ± 1.5	29.8 ± 1.4	26.1 ± 1.2	23.1 ± 1.1	activity coefficient ([3]; 403.15 K, Chromatography): 20.8 ± 0.96
CCCCCCCCC [nonane]	1.4057 ± 0.0007	717.8 ± 5 kg/m3									
CCCCCCCCC [nonane] + OCCOCCOCCO			183 ± 8.6	156 ± 7.4	140 ± 6.6	119 ± 5.6	103 ± 4.8	93 ± 4.4	81.4 ± 3.8	73.9 ± 3.5	
CCCCCCCCC [nonane] + OCCOCCOCCOCCO				92.3 ± 4.3		64.7 ± 3	57.4 ± 2.7	49.3 ± 2.3	42.9 ± 2	39.7 ± 1.8	activity coefficient ([3]; 403.15 K, Chromatography): 34.1 ± 1.6
CCCCCCCC [octane]	1.3975 ± 0.0007	702.6 ± 5 kg/m3									
CCCCCCCC [octane] + OCCOCCOCCO			129 ± 6.1	113 ± 5.3	99.5 ± 4.7	86.9 ± 4.1	75.8 ± 3.5	68.7 ± 3.2	60.5 ± 2.8	56.7 ± 2.6	
CCCCCCCC [octane] + OCCOCCOCCOCCO											activity coefficient ([3]; 333.15 K): 68.1 ± 6.4; activity coefficient ([3]; 353.15 K): 49.5 ± 4.6; activity coefficient ([3]; 363.15 K): 43.2 ± 4; activity coefficient ([3]; 373.1 K): 37.5 ± 3.5; activity coefficient ([3]; 383.15 K): 32.4 ± 3; activity coefficient ([3]; 393.15 K): 31.4 ± 2.9; activity coefficient ([3]; 403.15 K): 25.8 ± 2.4
Cc1ccccc1 [toluene]	1.4962 ± 0.0007	866.7 ± 5 kg/m3									
Cc1ccccc1 [toluene] + OCCOCCOCCO			7.11 ± 0.33	6.8 ± 0.31	6.51 ± 0.3	6.25 ± 0.29	5.99 ± 0.27	5.85 ± 0.27	5.56 ± 0.25	5.51 ± 0.25	
Cc1ccccc1 [toluene] + OCCOCCOCCOCCO				4.5 ± 0.21		4.02 ± 0.18	3.85 ± 0.18	3.62 ± 0.16	3.46 ± 0.16	3.37 ± 0.15	activity coefficient ([3]; 403.15 K, Chromatography): 3.21 ± 0.15
OCCOCCOCCO [triethylene glycol]	1.4556 ± 0.0007	1127.8 ± 5 kg/m3									
